Results from BigSolDB 2.1.

O=c1[nH]c2ccccc2c(=O)o1
solubility (mole fraction)
Conditions | 288.15 K | 293.15 K | 298.15 K | 303.15 K | 308.15 K | 313.15 K | 318.15 K | 323.15 K | 328.15 K
in 1,4-dioxane | 0.00839 | 0.00944 | 0.0107 | 0.0119 | 0.0133 | 0.0146 | – | 0.0179 | 0.0198
in 2-butanone | 0.00741 | 0.00805 | 0.00877 | 0.00964 | 0.0107 | 0.0117 | 0.0129 | 0.014 | 0.0153
in acetone | 0.00794 | 0.00873 | 0.00965 | 0.0109 | 0.0122 | 0.0135 | 0.0149 | 0.0165 | 0.0184
in acetonitrile | 0.003 | 0.0033 | 0.00374 | 0.0043 | 0.00485 | 0.00553 | 0.00624 | 0.00712 | 0.00797
in ethanol | 0.00134 | 0.0015 | 0.00175 | 0.00201 | 0.00239 | 0.00277 | 0.00328 | 0.00381 | 0.00439
in ethyl acetate | 0.0032 | 0.00352 | 0.00389 | 0.00434 | 0.00482 | 0.00533 | 0.00582 | 0.00636 | 0.00694
in isopropanol | 0.00104 | 0.00121 | 0.00144 | 0.00176 | 0.00216 | 0.00265 | 0.00316 | 0.0038 | 0.00457
in isopropyl acetate | 0.00185 | 0.00206 | 0.00234 | 0.00256 | 0.00291 | 0.00325 | 0.0036 | 0.00396 | 0.00434
in methanol | 0.00149 | 0.00173 | 0.00204 | 0.00243 | 0.00295 | 0.00354 | 0.00425 | 0.00507 | 0.00606
in methyl acetate | 0.00415 | 0.00464 | 0.00517 | 0.00573 | 0.00634 | 0.00699 | 0.00768 | 0.00844 | 0.00937
in n-propanol | 0.00116 | 0.00133 | 0.00152 | 0.00181 | 0.00208 | 0.0025 | 0.00291 | 0.00341 | 0.00394
in n-propyl acetate | 0.00229 | 0.00255 | 0.00285 | 0.00318 | 0.00351 | 0.00394 | 0.00434 | 0.00477 | 0.00534
